Laboratory results published in PMC11212559 (Emerging Microbes & Infections, 2024).

Biological target: E1CTD (Monkeypox virus Zaire-96-I-16, UniProt Q8V4Y7)

C[S+](CC[C@H](N)C(=O)O)C[C@H]1O[C@@H](n2cnc3c(N)ncnc32)[C@H](O)[C@@H]1O (stereo partly shown) [SAM]
no detectable binding ability: the E1CTD also shows no detectable binding ability to SAM
